In ChEMBL document CHEMBL1140783, “Design and synthesis of 4-quinolinone 2-carboxamides as calpain inhibitors” (Bioorg Med Chem Lett, 2008):
pIC50: −log10 of the molar value.

Molecular target: T1, Calpain-1 catalytic subunit (Homo sapiens, UniProt P07384)
T1 sequence (P07384 whole entry): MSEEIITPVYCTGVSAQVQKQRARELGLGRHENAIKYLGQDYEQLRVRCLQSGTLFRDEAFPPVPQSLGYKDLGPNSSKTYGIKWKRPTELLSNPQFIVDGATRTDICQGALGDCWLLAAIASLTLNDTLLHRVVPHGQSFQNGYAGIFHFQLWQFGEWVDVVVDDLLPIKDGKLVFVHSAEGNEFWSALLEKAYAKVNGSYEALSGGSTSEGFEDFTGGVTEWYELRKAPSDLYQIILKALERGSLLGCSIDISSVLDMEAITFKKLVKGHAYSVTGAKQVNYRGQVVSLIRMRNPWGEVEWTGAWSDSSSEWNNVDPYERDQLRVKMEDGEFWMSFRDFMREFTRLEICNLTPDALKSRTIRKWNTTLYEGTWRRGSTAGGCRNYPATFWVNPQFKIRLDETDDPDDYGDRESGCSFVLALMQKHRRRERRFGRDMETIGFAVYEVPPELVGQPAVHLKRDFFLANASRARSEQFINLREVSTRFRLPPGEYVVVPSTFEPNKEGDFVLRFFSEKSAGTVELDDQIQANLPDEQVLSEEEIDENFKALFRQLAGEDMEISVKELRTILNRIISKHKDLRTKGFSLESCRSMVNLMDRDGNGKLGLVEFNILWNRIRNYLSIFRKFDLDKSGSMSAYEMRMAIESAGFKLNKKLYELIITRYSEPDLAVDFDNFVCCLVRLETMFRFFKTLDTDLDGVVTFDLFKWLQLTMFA
Experiment: Inhibition of human mu-calpain

SMILES | pIC50
Cc1c(C(=O)N[C@@H](Cc2ccccc2)C(=O)C(=O)NCc2ccccc2)[nH]c2ccccc2c1=O | 5.30
Cc1c(C(=O)N[C@@H](Cc2ccccc2)C(=O)C(=O)NCc2ccc(F)cc2)[nH]c2ccccc2c1=O | 5.25
Cc1c(C(=O)N[C@@H](Cc2ccccc2)C(=O)C(=O)NCc2ccccn2)nc2ccccc2c1O | 5.11
Cc1c(C(=O)N[C@@H](Cc2ccccc2)C(=O)C(=O)NCCc2ccccn2)[nH]c2ccccc2c1=O | 5.20
CNC(=O)C(=O)[C@H](Cc1ccccc1)NC(=O)c1[nH]c2ccccc2c(=O)c1C | 5.06
CCNC(=O)C(=O)[C@H](Cc1ccccc1)NC(=O)c1nc2ccccc2c(O)c1C | 4.40
Cc1c(C(=O)N[C@@H](Cc2ccccc2)C(=O)C(=O)NC(C)C)nc2ccccc2c1O | < 4.30

These reach a higher pIC50. Values come first.

pIC50 | SMILES
7.40 | Cc1c(C(=O)N[C@@H](Cc2ccccc2)C(=O)C(N)=O)oc2ccccc2c1=O
5.75 | COc1ccc(CNC(=O)C(=O)[C@H](Cc2ccccc2)NC(=O)c2[nH]c3ccccc3c(=O)c2C)cc1OC
6.14 | COc1ccc(CCNC(=O)C(=O)[C@H](Cc2ccccc2)NC(=O)c2[nH]c3ccccc3c(=O)c2C)cc1
6.15 | Cc1c(C(=O)N[C@@H](Cc2ccccc2)C(=O)C(N)=O)nc2ccccc2c1O
5.42 | COc1ccc(CNC(=O)C(=O)[C@H](Cc2ccccc2)NC(=O)c2nc3ccccc3c(O)c2C)cc1
5.43 | Cc1c(C(=O)N[C@@H](Cc2ccccc2)C(=O)C(=O)NCCc2ccccc2)nc2ccccc2c1O
